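Interpolation was linear, between the two tested concentrations surrounding the appropriate level; five concentrations were tested over 48 hours in 96-well plates. GI50 marks 50% less growth.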 The source made the active and inactive calls. Cut-off read from the data, not from the text of the source: active = GI50 up to about 1.1 µM and inactive = higher.
Tests used:
Test in all cases: NCI anticancer screen, dose series, 48 h
T47D = system: T47D
UO-31 = system: UO-31
NCI-H23 = system: NCI-H23
MCF7 = system: MCF7
EKVX = system: EKVX
SF-539 = system: SF-539
COLO 205 = system: COLO 205
HL-60 = system: HL-60
HCC 2998 = system: HCC 2998
TK-10 = system: TK-10
SK-OV-3 = system: SK-OV-3
Hs-578T = system: Hs-578T
NCI-H226 = system: NCI-H226
SF-268 = system: SF-268
NCI/ADR-RES = system: NCI/ADR-RES
HCT-116 = system: HCT-116
CCRF-CEM = system: CCRF-CEM
BT-549 = system: BT-549
HT-29 = system: HT-29
NCI-H522 = system: NCI-H522

Measured: GI50

C=C(C)OCOCCOC
inactive: T47D > 100 µM | UO-31 > 100 µM | NCI-H23 > 100 µM | MCF7 > 100 µM | EKVX > 100 µM | SF-539 > 100 µM | COLO 205 > 100 µM | HL-60 > 100 µM | HCC 2998 > 100 µM | TK-10 > 100 µM | SK-OV-3 > 100 µM | Hs-578T > 100 µM | NCI-H226 > 100 µM | SF-268 > 100 µM | NCI/ADR-RES > 100 µM | HCT-116 > 100 µM | CCRF-CEM > 100 µM | BT-549 > 100 µM | HT-29 > 100 µM | NCI-H522 > 100 µM

CN(C)c1ccc(C2SCC(=O)N2c2nc3cc4sc(N5C(=O)CSC5c5ccc(N(C)C)cc5)nc4cc3s2)cc1 (stereo not given)
inactive: T47D 31.6 µM | UO-31 23.1 µM | NCI-H23 11.4 µM | MCF7 12 µM | EKVX 54.1 µM | SF-539 51.5 µM | COLO 205 3.73 µM | HL-60 29 µM | HCC 2998 > 100 µM | TK-10 > 100 µM | SK-OV-3 85.7 µM | Hs-578T 47.2 µM | NCI-H226 7.62 µM | SF-268 75.7 µM | NCI/ADR-RES > 23.3 µM | HCT-116 16 µM | CCRF-CEM 3.41 µM | BT-549 22.9 µM | HT-29 17 µM | NCI-H522 3.76 µM

O=c1c2ccccc2n2n1Cc1ccccc1C2
inactive: T47D > 100 µM | UO-31 86.3 µM | NCI-H23 > 100 µM | MCF7 > 100 µM | EKVX 35.6 µM | SF-539 > 100 µM | COLO 205 > 100 µM | HL-60 > 100 µM | HCC 2998 > 100 µM | TK-10 > 100 µM | SK-OV-3 > 100 µM | Hs-578T 57.9 µM | NCI-H226 > 100 µM | SF-268 > 100 µM | NCI/ADR-RES > 100 µM | HCT-116 > 100 µM | CCRF-CEM > 100 µM | BT-549 > 100 µM | HT-29 > 100 µM | NCI-H522 > 100 µM

CC(C)/C(=N\[N+](C)(C)C)c1ccccc1
inactive: T47D > 100 µM | UO-31 > 100 µM | NCI-H23 > 100 µM | MCF7 > 100 µM | EKVX > 100 µM | SF-539 > 100 µM | COLO 205 > 100 µM | HL-60 > 100 µM | HCC 2998 > 100 µM | TK-10 > 100 µM | SK-OV-3 > 100 µM | Hs-578T > 100 µM | NCI-H226 > 100 µM | SF-268 > 100 µM | NCI/ADR-RES > 100 µM | HCT-116 > 100 µM | CCRF-CEM > 100 µM | BT-549 > 100 µM | HT-29 > 100 µM | NCI-H522 > 100 µM

From ChEMBL document CHEMBL1201862, “PubChem BioAssay data set” (2004)
